Test systems include KM12 colon; MCF7 breast; U251 CNS; ACHN renal; OVCAR-3 ovarian; DU-145 prostate; SW-620 colon; HOP-62 NSCLC; SR leukemia.
What all share (test): NCI anticancer screen, dose series, 48 h

The values below come from PubChem BioAssay (NCI).

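Assay format: 96-well plates, 48-hour exposure. TGI: total growth inhibition.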

With `CCCCC[C@@H]1OC(=O)[C@@]2(CC3c4ccccc4C2c2ccccc23)[C@H]1C(=O)OC`, the TGI in the assay with KM12 colon, in the assay with MCF7 breast, with U251 CNS, with ACHN renal, in the assay on OVCAR-3 ovarian and in the assay with DU-145 prostate was above 100 µM throughout. For the same compound, the TGI in the assay on SW-620 colon, in the assay with HOP-62 NSCLC and in the assay on SR leukemia was above 100 µM each time.

Regarding `C=C1C(=O)O[C@H]2[C@@H](O)[C@H](C)CCC/C(C)=C/CC[C@@]3(C)O[C@@H]3C[C@@H]12`, the TGI with KM12 colon was found to be 33.1 µM; with MCF7 breast, 36.4 µM; in the assay with U251 CNS it was 26.9 µM; in the assay with ACHN renal, 6.16 µM; in the assay on OVCAR-3 ovarian, 31.1 µM; with DU-145 prostate it was 19.1 µM. Besides, the TGI in the assay with SW-620 colon was determined as 39.9 µM; in the assay with HOP-62 NSCLC, 56.3 µM; in the assay on SR leukemia it was 14.7 µM.

For `Cc1nc2ccccc2n1CCc1nc2ccccc2[nH]1`, the TGI in the assay on KM12 colon, in the assay on MCF7 breast, in the assay on U251 CNS, in the assay with ACHN renal, in the assay on OVCAR-3 ovarian and in the assay on DU-145 prostate was above 100 µM throughout. The TGI in the assay on SW-620 colon, with HOP-62 NSCLC and in the assay with SR leukemia was above 100 µM each time.

Turning to `CCOc1cc(C=Nc2ccc(Oc3ccc(Cl)cc3)c(Cl)c2)ccc1O`, the TGI was 39 µM in the assay with KM12 colon; above 100 µM in the assay with MCF7 breast; 44.4 µM in the assay with U251 CNS; above 100 µM with ACHN renal; 85.7 µM in the assay on OVCAR-3 ovarian; above 100 µM in the assay on DU-145 prostate. Also, the TGI was above 100 µM in the assay with SW-620 colon, 45.6 µM in the assay on HOP-62 NSCLC and 57 µM in the assay with SR leukemia.

`Cc1cc2nnn(C3CCCO3)c2cc1C` (stereo unspecified): the TGI in the assay on MCF7 breast, in the assay on U251 CNS, in the assay on OVCAR-3 ovarian, in the assay with DU-145 prostate, with HOP-62 NSCLC and in the assay with SR leukemia was above 100 µM throughout.

`C[N+](C)(C)c1nc(N)nc2c1ncn2C1OC(CO)C(O)C1O` (stereo unspecified): the TGI with KM12 colon, in the assay with MCF7 breast, in the assay on U251 CNS, in the assay with ACHN renal, with OVCAR-3 ovarian and with DU-145 prostate was above 100 µM throughout. In addition, the TGI with SW-620 colon, with HOP-62 NSCLC and in the assay with SR leukemia was above 100 µM throughout.

With `Cc1ccc(N=Nc2cc(=O)[nH]c(=O)[nH]2)cc1C`, the TGI with KM12 colon came out at 24.5 µM; in the assay with MCF7 breast it was 29.4 µM; in the assay with U251 CNS it was 29.1 µM; in the assay on ACHN renal, 24.4 µM; in the assay on OVCAR-3 ovarian, 4.19 µM; in the assay on DU-145 prostate, 27.9 µM. The figures for the TGI in the assay with SW-620 colon, in the assay with HOP-62 NSCLC and in the assay on SR leukemia were 14.9 µM, 43.1 µM and above 100 µM, respectively.

On to `CN(C)CCCN1C(=O)N(CCCN(C)C)c2c3cc(O)ccc3nc3c([N+](=O)[O-])ccc1c23`, for which the TGI in the assay on KM12 colon is 29.8 µM; with MCF7 breast, 40.4 µM; with U251 CNS it was 30.2 µM; with ACHN renal it was 62.6 µM; in the assay with OVCAR-3 ovarian it was 67.6 µM; in the assay on DU-145 prostate it was 64 µM. Also, the results for the TGI in the assay on SW-620 colon and with HOP-62 NSCLC were 53.2 µM and 52.7 µM, respectively.

Regarding `O=C(O)C1(Cc2ccc3c(c2)CCC3)Cc2cc3c(cc2C1)CCC3`, the TGI with KM12 colon, in the assay with MCF7 breast, in the assay with U251 CNS, in the assay with ACHN renal, in the assay on OVCAR-3 ovarian and with DU-145 prostate was above 100 µM each time. The TGI with SW-620 colon and in the assay on SR leukemia was above 100 µM each time.

In the case of `CNc1ccc([N+](=O)[O-])cc1C(=O)N1CCC[C@H]1CO`, the TGI in the assay on KM12 colon, with MCF7 breast, in the assay on U251 CNS, with ACHN renal, in the assay on DU-145 prostate and in the assay with SW-620 colon was above 100 µM in each case. In addition, the TGI in the assay on HOP-62 NSCLC and with SR leukemia was above 100 µM in each case.

Consider `Oc1cc(Br)cc2cc(Br)cnc12`, for which the TGI in the assay with KM12 colon was above 100 µM; in the assay on MCF7 breast it was above 100 µM; in the assay on ACHN renal it was 47.4 µM; in the assay on DU-145 prostate, 60.8 µM; in the assay on SW-620 colon it was above 100 µM; in the assay on HOP-62 NSCLC, above 100 µM. Also, the TGI with SR leukemia worked out at 11 µM.

In the case of `COC(=O)C1CC(C=O)=C(SC)N1` (stereo unspecified), the TGI in the assay on KM12 colon, with MCF7 breast, in the assay with U251 CNS, in the assay on ACHN renal, in the assay with OVCAR-3 ovarian and with DU-145 prostate was above 50 µM throughout. For the same compound, the TGI in the assay with SW-620 colon and with HOP-62 NSCLC was above 50 µM in each case.

Consider `N#Cc1nc(Cc2cccs2)oc1N`, for which the TGI in the assay with KM12 colon, in the assay on MCF7 breast, in the assay on U251 CNS, in the assay with ACHN renal, in the assay on DU-145 prostate and in the assay with SW-620 colon was above 100 µM throughout. For the same compound, the TGI in the assay with HOP-62 NSCLC and with SR leukemia was above 100 µM in each case.

In the case of `O=C(n1c(=O)n(-c2ccc([N+](=O)[O-])cc2)c(=O)n1C(=O)C(Cl)(Cl)Cl)C(Cl)(Cl)Cl`, the TGI in the assay with KM12 colon, in the assay on MCF7 breast, in the assay on U251 CNS, in the assay with ACHN renal, with OVCAR-3 ovarian and in the assay on DU-145 prostate was above 100 µM in each case. Besides, the TGI in the assay with SW-620 colon and in the assay on HOP-62 NSCLC was above 100 µM in each case.

In the case of `COc1cc(/C=C2\N=C(c3ccccc3)N(c3ccc(C(=O)c4ccccc4)cc3N3C(=O)/C(=C/c4cc(OC)c(OC)c(OC)c4)N=C3c3ccccc3)C2=O)cc(OC)c1OC`, the TGI with KM12 colon is 48.9 µM; with MCF7 breast it was 42.1 µM; with U251 CNS it was above 100 µM; with ACHN renal it was 66 µM; in the assay with OVCAR-3 ovarian, 16.6 µM; in the assay with DU-145 prostate it was 40.3 µM. Besides, the values for the TGI in the assay with SW-620 colon and with HOP-62 NSCLC were 40.7 µM and above 100 µM, respectively.

Turning to `CC(=O)Nc1oc(C)nc1C#N`, the TGI in the assay with KM12 colon, with MCF7 breast, with U251 CNS, with ACHN renal, with DU-145 prostate and with SW-620 colon was above 100 µM each time. For the same compound, the TGI in the assay on HOP-62 NSCLC and with SR leukemia was above 100 µM in each case.
